In patent publication US10676468B2, “N-(3-heteroarylaryl)-4-arylarylcarboxamides and analogs as hedgehog pathway inhibitors and use thereof” (IMPACT Therapeutics, Inc., priority 2012, dated 2020):

Key:
Type in all cases: cell-based, mouse
[1] = test system: Hedgehog Signaling Pathway; assay: SHH-induced differentiation of C3H10T1/2 cells into osteoblastic cells, intracellular alkaline phosphatase activity; settings: 10 nM SHH-N, 5 days, alkaline phosphatase activity (OD405), read-out: IC50 values of compounds that inhibit Hh pathway
In short: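 Hedgehog pathway inhibition was taken as loss of SHH-driven osteoblastic differentiation. Test compound (10 nM–10 μM) plus SHH-N (10 nM) was applied to C3H10T1/2 cells for 5 days, then lysate phosphatase turnover was measured as the 30-min OD405 change at 37 °C. IC50 was fitted from activity versus log dose.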

[2] = test system: Hedgehog Signaling Pathway; assay: Gli-Luc reporter gene cell assay in C3H10T1/2/Gli-Luc cells stimulated with Shh; settings: 30 nM Shh, luciferase activity (RLU), read-out: IC50 values of compounds that inhibit Hh pathway
In short: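 IC50 from nonlinear fit of luciferase RLU versus log compound concentration. Stably transfected C3H10T1/2/Gli-Luc cells received a 7-point compound series alongside Shh (30 nM in the added medium) for 24 h at 37 °C in DMEM/10% FBS, then were lysed for luciferase readout.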

[3] = test system: Hedgehog Signaling Pathway; assay: SAG-induced differentiation of C3H10T1/2 cells into osteoblastic cells, intracellular alkaline phosphatase activity; settings: 1 μM SAG, 5 days, alkaline phosphatase activity (OD405), read-out: IC50 values of compounds that inhibit Hh pathway
In short: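 Mouse C3H10T1/2 cells were induced with SAG and exposed to compound (10 μM to 1 nM) for 5 days at 37 °C. Cells were lysed in 0.2% Triton, and alkaline phosphatase activity was read as OD405 over 30 min at 37 °C in pH 9.8 substrate buffer. IC50 came from a non-linear fit of background-subtracted OD405 against log concentration.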

[4] = Mus musculus, C3H 10T1/2, 120 h

Compound | IC50 [1, 4] | IC50 ([2]; Mus musculus, C3H 10T1/2, 24 h) | IC50 [3, 4] | IC50 [1] | IC50 ([2]; 24 hours) | IC50 [3]
Cc1cc(N2C[C@@H](C)N(C)[C@@H](C)C2)ccc1C(=O)Nc1ccc(Cl)c(-c2ncc(C3CC3)[nH]2)c1 [Example 177, N-(3-(5-cyclopropyl-1H-imidazol-2-yl)-4-chlorophenyl)-2-methyl-4-((3S,5R)-3,4,5-trimethylpiperazin-1-yl)benzamide] | 1 nM | 0.67 nM | 23 nM |  |  | 
Cc1cc(-c2ccc([N+](=O)[O-])cc2)ccc1C(=O)Nc1ccc(Cl)c(-c2nc3ccccc3[nH]2)c1 [Example 7, N-(3-(1H-benzo[d]imidazol-2-yl)-4-chlorophenyl)-3-methyl-4′-nitrobiphenyl-4-carboxamide] | 3.5 nM | 4.6 nM | 25 nM |  |  | 
O=C(Nc1ccc(Cl)c(-c2nc3ccccc3[nH]2)c1)c1ccc(-c2ccc(C(F)(F)F)cc2)cc1 [Example 22, N-(3-(1H-benzo[d]imidazol-2-yl)-4-chlorophenyl)-4′-(trifluoromethyl)biphenyl-4-carboxamide] | 15 nM | 16 nM | 124 nM |  |  | 
Cc1cc(N2C[C@@H](C)N(C)[C@@H](C)C2)ccc1C(=O)Nc1cnc(C)c(-c2nc3ccccc3[nH]2)c1 [Example 88, N-(5-(1H-benzo[d]imidazol-2-yl)-6-methylpyridin-3-yl)-2-methyl-4-((3S,5R)-3,4,5-trimethylpiperazin-1-yl)benzamide] | 11 nM | 6.7 nM | 119 nM |  |  | 
C[C@@H]1CN(c2ccc(C(=O)Nc3ccc(Cl)c(-c4nc5ccccc5[nH]4)c3)c(F)c2)C[C@H](C)N1C [Example 95, N-(3-(1H-benzo[d]imidazol-2-yl)-4-chlorophenyl)-2-fluoro-4-((3S,5R)-3,4,5-trimethylpiperazin-1-yl)benzamide] | 13 nM | 3.3 nM | 111 nM |  |  | 
Cc1cc(-c2ccc(C(F)(F)F)cc2)ccc1C(=O)Nc1ccc(Cl)c(-c2nc3cnccc3[nH]2)c1 [Example 49, N-(3-(1H-imidazo[4,5-c]pyridin-2-yl)-4-chlorophenyl)-3-methyl-4′-(trifluoromethyl)biphenyl-4-carboxamide] | 2.4 nM | 7.2 nM | 261 nM |  |  | 
Cc1cc(N2C[C@@H](C)O[C@@H](C)C2)ccc1C(=O)Nc1cnc(Cl)c(-c2nc3ccccc3[nH]2)c1 [Example 83, N-(5-(1H-benzo[d]imidazol-2-yl)-6-chloropyridin-3-yl)-2-methyl-4-((2S,6R)-2,6-dimethylmorpholino)benzamide] | 9.2 nM | 6.3 nM | 43 nM |  |  | 
Cc1ccc2nc(-c3cc(NC(=O)c4ccc(N5C[C@@H](C)N(C)[C@@H](C)C5)cc4C)ccc3Cl)[nH]c2c1 [Example 112, N-(3-(6-methyl-1H-benzo[d]imidazol-2-yl)-4-chlorophenyl)-2-methyl-4-((3S,5R)-3,4,5-trimethylpiperazin-1-yl)benzamide] | 8.6 nM | 5.5 nM | 83 nM |  |  | 
Cc1cc(N2C[C@@H](C)O[C@@H](C)C2)ncc1C(=O)Nc1ccc(Cl)c(-c2nc3ccccc3[nH]2)c1 [Example 91, N-(3-(1H-benzo[d]imidazol-2-yl)-4-chlorophenyl)-4-methyl-6-((2S,6R)-2,6-dimethylmorpholino)nicotinamide] | 6.8 nM | 7.8 nM | 52 nM |  |  | 
Cc1ccc2nc(-c3cc(NC(=O)c4ccc(N5C[C@@H](C)N(C)[C@@H](C)C5)cc4Cl)ccc3Cl)[nH]c2c1 [Example 111, N-(3-(6-methyl-1H-benzo[d]imidazol-2-yl)-4-chlorophenyl)-2-chloro-4-((3S,5R)-3,4,5-trimethylpiperazin-1-yl)benzamide] | 0.94 nM | 2.2 nM | 68 nM |  |  | 
C[C@@H]1CN(c2ccc(C(=O)Nc3ccc(Cl)c(-c4nc5ccccc5[nH]4)c3)cc2)C[C@H](C)N1C [Example 118, N-(3-(1H-benzo[d]imidazol-2-yl)-4-chlorophenyl)-4-((3S,5R)-3,4,5-trimethylpiperazin-1-yl)benzamide] | 13 nM | 5.1 nM | 260 nM |  |  | 
CS(=O)(=O)c1ccc(C(=O)Nc2ccc(Cl)c(-c3ncc(-c4cccs4)[nH]3)c2)c(Cl)c1 [Example 160, N-(3-(5-(thiophen-2-yl)-1H-imidazol-2-yl)-4-chlorophenyl)-2-chloro-4-(methylsulfonyl)benzamide] | > 10000 nM | 6.5 nM | 66 nM |  |  | 
CCCc1cnc(-c2cc(NC(=O)c3ccc(N4C[C@@H](C)N(C)[C@@H](C)C4)cc3C)ccc2Cl)[nH]1 [Example 172, N-(3-(5-propyl-1H-imidazol-2-yl)-4-chlorophenyl)-2-methyl-4-((3S,5R)-3,4,5-trimethylpiperazin-1-yl)benzamide] | 45 nM | 17 nM | 127 nM |  |  | 
Cc1cc(-c2ccc(C(F)(F)F)cc2)ccc1C(=O)Nc1cncc(-c2nc3ccccc3[nH]2)c1 [Example 60, N-(5-(1H-benzo[d]imidazol-2-yl)pyridin-3-yl)-3-methyl-4′-(trifluoromethyl)biphenyl-4-carboxamide] | 18 nM | 23 nM | 141 nM |  |  | 
C[C@@H]1CN(c2ccc(C(=O)Nc3cnc(Cl)c(-c4nc5ccc(Cl)cc5[nH]4)c3)c(Cl)c2)C[C@H](C)N1C [Example 130, N-(5-(6-chloro-1H-benzo[d]imidazol-2-yl)-6-chloropyridin-3-yl)-2-chloro-4-((3S,5R)-3,4,5-trimethylpiperazin-1-yl)benzamide] | 18 nM | 8.5 nM | 178 nM |  |  | 
Cc1cc(-c2ccc(C(F)(F)F)cc2)ccc1C(=O)Nc1ccc(Cl)c(-c2nc3ccccc3n2C)c1 [Example 47, N-(3-(1-methyl-1H-benzo[d]imidazol-2-yl)-4-chlorophenyl)-3-methyl-4′-(trifluoromethyl)biphenyl-4-carboxamide] | 3.3 nM | 8.7 nM | 102 nM |  |  | 
Cc1nc(N2C[C@@H](C)O[C@@H](C)C2)ccc1C(=O)Nc1ccc(Cl)c(-c2nc3ccccc3[nH]2)c1 [Example 38, N-(3-(1H-benzo[d]imidazol-2-yl)-4-chlorophenyl)-2-methyl-6-((2S,6R)-2,6-dimethylmorpholino)nicotinamide] | 4.9 nM | 8.4 nM | 28 nM |  |  | 
C[C@@H]1CN(c2ccc(C(=O)Nc3ccc(Cl)c(-c4ncc(-c5ccc(Cl)s5)[nH]4)c3)cc2Cl)C[C@H](C)N1C [Example 137, N-(3-(5-(5-chlorothiophen-2-yl)-1H-imidazol-2-yl)-4-chlorophenyl)-3-chloro-4-((3S,5R)-3,4,5-trimethylpiperazin-1-yl)benzamide] | 15 nM | 2.3 nM | 51 nM |  |  | 
Cc1nc(N2C[C@@H](C)N(C)[C@@H](C)C2)ccc1C(=O)Nc1ccc(Cl)c(-c2nc3ccccc3[nH]2)c1 [Example 116, N-(3-(1H-benzo[d]imidazol-2-yl)-4-chlorophenyl)-2-methyl-6-((3S,5R)-3,4,5-trimethylpiperazin-1-yl)nicotinamide] | 2.1 nM | 1.4 nM | 68 nM |  |  | 
CCN1[C@H](C)CN(c2ccc(C(=O)Nc3ccc(Cl)c(-c4nc5ccc(F)cc5[nH]4)c3)c(Cl)c2)C[C@@H]1C [Example 114, N-(3-(6-fluoro-1H-benzo[d]imidazol-2-yl)-4-chlorophenyl)-2-chloro-4-((3S,5R)-4-ethyl-3,5-dimethylpiperazin-1-yl)benzamide] | 9 nM | 0.85 nM | 77 nM |  |  | 
C[C@@H]1CN(c2ccc(C(=O)Nc3ccc(Cl)c(-c4ncc(C5CC5)[nH]4)c3)c(C(F)(F)F)c2)C[C@H](C)N1C [Example 178, N-(3-(5-cyclopropyl-1H-imidazol-2-yl)-4-chlorophenyl)-2-(trifluoro-methyl)-4-((3S,5R)-3,4,5-trimethylpiperazin-1-yl)benzamide] | 0.3 nM | 1 nM | 26 nM |  |  | 
Cc1cc(-c2ccc(Cl)cc2)ccc1C(=O)Nc1ccc(Cl)c(-c2nc3ccccc3[nH]2)c1 [Example 8, N-(3-(1H-benzo[d]imidazol-2-yl)-4-chlorophenyl)-3-methyl-4′-chlorobiphenyl-4-carboxamide] | 3.6 nM | 4.6 nM | 86 nM |  |  | 
Cc1ccc(-c2cnc(-c3cc(NC(=O)c4ccc(N5C[C@@H](C)O[C@@H](C)C5)cc4C)ccc3Cl)[nH]2)cc1 [Example 80, N-(3-(5-p-tolyl-1H-imidazol-2-yl)-4-chlorophenyl)-2-methyl-4-((2S,6R)-2,6-dimethylmorpholino)benzamide] | 2.7 nM | 1.8 nM | 28 nM |  |  | 
N-(3-(5-(furan-2-yl)-1H-imidazol-2-yl)-4-chlorophenyl)-2-cyano-4-((3S,5R)-3,4,5-trimethylpiperazin-1-yl)benzamide [Example 147] |  |  |  | > 10000 nM | > 10000 nM | > 10000 nM
